In PMC10943399 (Heliyon, 2024):
Entries after “also recorded” stand apart in the source; their conditions may differ. Read-outs that look alike come from different tables or passages of the source.

How the values were obtained:
[1] = tested on: P. falciparum 3D7 (CQ-sensitive); assay: pLDH antimalarial assay, P. falciparum 3D7; assay type: cell-based, Plasmodium falciparum; details: for Selectivity Index (SI) (CC50MTT/EC50pLDH) P. falciparum 3D7 (CQ-sensitive): Vero CC50 / 3D7 EC50; for antimalarial activity category against CQ-sensitive P. falciparum 3D7: category by EC50 range
[2] = tested on: P. falciparum Gombak A (CQ-resistant); assay: pLDH antimalarial assay, P. falciparum Gombak A; assay type: cell-based, Plasmodium falciparum; details: for EC50: 48 h; for Selectivity Index (SI) (CC50MTT/EC50pLDH) P. falciparum Gombak A (CQ-resistant): Vero CC50 / Gombak A EC50
P. knowlesi PKA1H1 = assay: pLDH antimalarial assay, P. knowlesi A1H1; assay type: cell-based, Plasmodium knowlesi; details: for EC50: Plasmodium knowlesi, 24 h, read-out: P. knowlesi PKA1H1 EC50 (μM) ± SD; for Selectivity Index (SI) (CC50MTT/EC50pLDH) P. knowlesi PKA1H1: Vero CC50 / PKA1H1 EC50
Vero cell (Normal cell) = assay: MTT cytotoxicity assay against Vero cells; assay type: cell-based; details: read-out: Vero cell (Normal cell) CC50 (μM) ± SD, 72 h, three independent experiments
zebrafish embryos [3] = assay: Zebrafish embryo acute toxicity; assay type: in vivo, zebrafish (Danio rerio); details: for effect on early embryonic development: zebrafish embryos at 24 hpf
zebrafish larvae = assay: Zebrafish cardiotoxicity; assay type: in vivo, zebrafish (Danio rerio); details: zebrafish larvae at 72 hpf
[4] = tested on: transgenic zebrafish line Tg(kdrl:egfp); assay: Blood vessel formation in transgenic zebrafish Tg; assay type: in vivo, zebrafish (Danio rerio); details: 30 hpf
zebrafish embryos [5] = assay: Spontaneous tail coiling; assay type: in vivo, zebrafish (Danio rerio); details: zebrafish embryos at 24 hpf, 6.25-50 μM, vs 0.1% DMSO
Solubility in egg water = assay type: physicochemical; details: zebrafish egg water
parasites = details: mice, dosage of 5 mg/kg, four days after treatment; cited from earlier work
[6] = Plasmodium falciparum, 3D7, 48 h, read-out: P. falciparum 3D7 (CQ-sensitive) EC50 (μM) ± SD, pLDH assay, 48 h, three independent experiments
[7] = read-out: P. falciparum 3D7 (CQ-sensitive) EC50 (μM) ± SD, pLDH assay, 48 h, three independent experiments
[8] = Plasmodium falciparum, read-out: P. falciparum Gombak A (CQ-resistant) EC50 (μM) ± SD, pLDH assay, 48 h, three independent experiments
[9] = zebrafish, 72 hpf, up to 200 μM
[10] = up to 200 μM, 2 h after treatment

SMILES | EC50 [1, 6] | Selectivity Index (SI) (CC50MTT/EC50pLDH) P. falciparum 3D7 (CQ-sensitive) [1] | antimalarial activity category against CQ-sensitive P. falciparum 3D7 [1] | EC50 [1, 7] | EC50 [2, 8] | Selectivity Index (SI) (CC50MTT/EC50pLDH) P. falciparum Gombak A (CQ-resistant) [2] | EC50 (P. knowlesi PKA1H1) | Selectivity Index (SI) (CC50MTT/EC50pLDH) P. knowlesi PKA1H1 (P. knowlesi PKA1H1) | also measured
COc1ccc(OC)c(C=CC(=O)C=Cc2cc(OC)ccc2OC)c1 [MS33C, 1,5-Bis(2,5-dimethoxyphenyl)penta-1,4-dien-3-one] | < 5 µM | 65.2 | active | 2.5 ± 0.4 µM | 56.2 ± 1.3 µM | 2.9 | 5.1 ± 0.2 µM | 32.0 | CC50 (Vero cell (Normal cell)): 163 ± 1.8 µM; effect on early embryonic development (zebrafish embryos [3]; up to 200 μM): no significant effect; morphological changes / heart development (zebrafish embryos [3]; [9]): no detectable morphological changes; also recorded: no effect on normal heart development; heart rate (zebrafish larvae; [10]): no obvious abnormalities; also recorded: normal heart beats; development of intersegmental vessels (ISVs) ([4]; up to 200 μM): no effect on normal vessel development; also recorded: no significant difference; mean STC activity (zebrafish embryos [5]): No significant change
COc1cccc(OC)c1C=CC(=O)C=Cc1c(OC)cccc1OC [MS33D, 1,5-Bis(2,6-dimethoxyphenyl)penta-1,4-dien-3-one] | 21.7 ± 0.8 µM | 10.4 | – | – | 74.4 ± 2.4 µM | 3.0 | 23.7 ± 2.6 µM | 9.5 | –
O=C1C(=Cc2ccccc2F)CCC1=Cc1ccccc1F [MS78, 2,5-Bis(2-fluorobenzylidene)cyclopentanone] | > 500 µM | – | – | 689.1 ± 4.2 µM | > 200 µM | – | 355 ± 7.1 µM | – | –
COc1cccc(C=CC(=O)C=Cc2cccc(OC)c2OC)c1OC [MS33A, 1,5-Bis(2,3-dimethoxyphenyl)penta-1,4-dien-3-one] | – | 26.6 | active | – | 87.5 ± 0.9 µM | 1.0 | 3.6 ± 0.2 µM | 22.9 | CC50 (Vero cell (Normal cell)): 82.6 ± 1.7 µM; effect on early embryonic development (zebrafish embryos [3]; 100 μM (not at 50 μM and lower)): gastrulation defects; heart development (edema) (zebrafish embryos [3]; zebrafish, 72 hpf, 50 μM (not at 25 μM)): heart edema; heart rate (zebrafish larvae; 12.5 μM): relatively normal; heart rate (zebrafish larvae; 25 and 50 μM): decrease in heartbeats; development of intersegmental vessels (ISVs) ([4]; 50 μM (not at 25 μM)): affected ISVs development; also recorded: inhibitory effects on ISV development; mean STC activity (zebrafish embryos [5]): No significant change
O=C(C=Cc1cccc(Cl)c1)C=Cc1cccc(Cl)c1 [MS40B, 1,5-Bis(3-chlorophenyl)penta-1,4-dien-3-one] | 13.7 ± 0.8 µM | 12.0 | active | – | 45.6 ± 1.3 µM | 3.6 | 16.6 ± 0.5 µM | 9.9 | –
O=C1C(=Cc2ccccc2Cl)CCCC1=Cc1ccccc1Cl [MS47, 2,6-Bis(2-chlorobenzylidene)cyclohexanone] | 16.1 ± 0.5 µM | 10.6 | active | – | 51.4 ± 2.7 µM | 3.3 | 21.7 ± 1.2 µM | 7.9 | –
COc1ccc(C=C2CCCC(=Cc3ccc(OC)c(OC)c3OC)C2=O)c(OC)c1OC [MS72A, 2,6-Bis(2,3,4-trimethoxybenzylidene)cyclohexanone] | > 500 µM | – | – | 530 ± 3.6 µM | > 200 µM | – | 507.5 ± 1.3 µM | – | –
COc1cc(C=C2CCCC(=Cc3cc(OC)c(OC)c(OC)c3)C2=O)cc(OC)c1OC [MS72C, 2,6-Bis(3,4,5-trimethoxybenzylidene)cyclohexanone] | > 500 µM | – | – | 515.1 ± 4.9 µM | > 200 µM | – | 430.1 ± 2.3 µM | – | –
CCN(CC)CCCC(C)Nc1ccnc2cc(Cl)ccc12 (centres unmarked) [CQ, chloroquine, reference compound] | – | – | – | – | 5.56 ± 3.2 µM | – | – | – | –
COc1cccc(C=C2CCCC(=Cc3cccc(OC)c3OC)C2=O)c1OC [MS69, 2,6-Bis(2,3-dimethoxybenzylidene)cyclohexanone] | > 500 µM | – | – | 785.8 ± 4.2 µM | 28.7 ± 2 µM | – | 324 ± 5.9 µM | – | –
O=C1C(=Cc2cccc(F)c2)CCC1=Cc1cccc(F)c1 [MS79, 2,5-Bis(3-fluorobenzylidene)cyclopentanone] | > 500 µM | – | – | 329.3 ± 2.6 µM | > 200 µM | – | 195 ± 2.7 µM | – | –
COc1cc(C=C2CCC(=Cc3cc(OC)c(OC)c(OC)c3)C2=O)cc(OC)c1OC [MS87, 2,5-Bis(3,4,5-trimethoxybenzylidene)cyclopentanone] | 10.8 ± 1.3 µM | 52.2 | active | – | 1.85 to 8.75 µM | 304.9 | 11.4 ± 0.9 µM | 49.5 | EC50 ([2]; read-out: P. falciparum Gombak A (CQ-resistant) EC50 (μM) ± SD, pLDH assay, three independent experiments): 1.85 ± 2.8 µM; solubility in egg water (Solubility in egg water): problems with solubility in egg water
COc1cc(C=CC(=O)C=Cc2cc(OC)c(OC)c(OC)c2)cc(OC)c1OC [MS34C, 1,5-Bis(3,4,5-trimethoxyphenyl)penta-1,4-dien-3-one] | – | 84.0 | active | – | – | 15.4 | 11.8 ± 1.1 µM | 11.4 | CC50 (Vero cell (Normal cell)): 134 ± 3.2 µM; effect on early embryonic development (zebrafish embryos [3]; up to 200 μM): no significant effect; morphological changes / heart development (zebrafish embryos [3]; [9]): no detectable morphological changes; also recorded: no effect on normal heart development; heart rate (zebrafish larvae; [10]): no obvious abnormalities; also recorded: normal heart beats; development of intersegmental vessels (ISVs) ([4]; up to 200 μM): no effect on normal vessel development; also recorded: no significant difference; mean STC activity (zebrafish embryos [5]): No significant change
COc1cc(/C=C/C(=O)CC(=O)/C=C/c2ccc(O)c(OC)c2)ccc1O [free curcumin, curcumin] | – | – | – | – | – | – | – | – | suppression of parasites (parasites): 40.5%
